Where “and” joins values, the source holds several entries; their conditions need not be identical. Equal entries are not always repeated. Where two headings read alike, the source gives them in different places.
Experiments:
[1] = system: B16 cancer cell cultures; assay: Cell phase distribution by flow cytometry (propidium iodine), B16; assay type: cell-based; details: genistein 5 μM, lovastatin 0.5 μM, geranyl anthranilate 30 μM, alone or all three together; for G2 phase cells: control 12.7%; for S phase cells: control 22.5%; for G1 phase cells: control 64.9%
From the text: (§1) Subsequent to the treatment of the cancer cells with these HGM-CoA reductase inhibitors, the cells were fixed in ethanol, treated with RNase and stained with propidium iodine. Fluorescent measurements were then made via a flow cytometer using a laser. A double discriminator was used as the primary gate to eliminate cell aggregates. The distribution profiles associated with the various phases (G1, S) were then obtained through the use of least squares fits of the frequency emission spectra.

[2] = system: DU145 cancer cell cultures; assay: Cell phase distribution by flow cytometry (propidium iodine), DU145; assay type: cell-based, Human; details: genistein 10 μM, lovastatin […], γ-tocotrienol 5 μM, alone or all three together; for G2 phase cells: control 11.6%; for G1 phase cells: control 65.4%; for S phase cells: control […]
From the text: as §1

[3] = system: Human LNCaP prostate carcinoma cells; assay: LNCaP cell proliferation, CellTiter 96, 72 h exposure; assay type: cell-based
Description: (§2) Seeding density was determined in the following pilot test. […] Incubation continued for an additional 48 h.
(§3) Incubation continued for additional 72 h.

[4] = system: B16 melanoma cells; assay: B16 melanoma cell proliferation (cell count / CellTiter 96); details: for Observed Growth (empirical percentage survival): 40 hour exposure; for Growth (average percent cell survival relative to the control group after 72 h exposure period): geranyl anthranilate 30 μM, alone or all three together
Description: B16 melanoma cells were grown in monolayer culture (35×10 mm flasks) in 3 ml RPMI 1640 medium supplemented with 10% fetal bovine serum (FBS) and 80 mg gentamicin/L. The cultures, seeded with 3.3×10^4 cells/mL, were incubated for 24 h at 37° C. in a humidified atmosphere of 5% CO2. The medium was decanted and replaced with fresh medium containing the test agents. Tocotrienol, perillyl alcohol, and geranyl- or farnesyl-hydroquinone ethers were dissolved in ethanol; and lovastatin and genistein were dissolved in dimethyl sulfoxide, DMSO. The incubations were continued for an additional 48 h. All cultures contained 1 ml/L each of ethanol and DMSO. The medium and detached cells were decanted, the monolayer was washed twice with Hanks' Balanced Salt Solution (HBSS) and then incubated with a trypsin-EDTA solution at 37° C. for 2 min. Trypsin was inactivated by suspending the cells in medium containing 10% FBS. The trypsinized cells were pelleted at 250 xg and resuspended in HBSS. Viable cells, cells that excluded 0.4% trypan blue were counted with a hemocytometer; 24-h cell counts were deducted from final cell counts to provide an estimate of the net increase in cell number.
Measurement of B16 cell proliferation was confirmed by using CellTiter 96, Aqueous One Solution (Promega). Seeding density was determined in the following pilot test. B16 cells were maintained in monolayer culture (96-well tissue culture plate) in 0.1 mL of the medium described above. Cultures, seeded in escalating densities (0-8000 cells/well with a 500-cell interval), were incubated for 72 h at 37° C. in a humidified atmosphere of 5% CO2. At 24 h the medium was decanted from each well and replaced with 0.1 mL fresh medium. The 72-h cell populations were determined by adding 20 μl of CellTiter 96, Aqueous One Solution to each well; the plate was held in dark at 37° C. for 2 h and then read at 490 nm with a SPECTRAmax, 190 multi-plate reader with SOFTmax, PRO version 3.0 (Molecular Devices). Cell survival data were assessed as absorbance versus cell seeding density. The absorbance has a linear correlation with cell seeding density up to 2000 B16 cells/well. The midpoint of cell inoculation density, 1000 cells/well, was chosen for B16 cell proliferation assay. This procedure of determining seeding density also applies to all other cell lines in which the CellTiter 96, Aqueous One Solution was used for proliferation assay. In the proliferation assay, B16cells were incubated in 96-well plates for 24 h. The medium was decanted from each well and replaced with 0.1 mL fresh medium containing the test agents. Incubation continued for an additional 48 h. Cell populations of all wells were determined according to CellTiter 96 procedure as described above. Cell proliferation represents the net absorbance, the difference in absorbance between final and 24-h measurements.

[5] = system: Human DU145 prostate carcinoma cells; assay: DU145 cell proliferation, CellTiter 96, 72 h exposure; assay type: cell-based; details: for Absorbance (net absorbance at 490 nm, net growth after 72 h) / Growth (average percent cell survival relative to the control group) / Growth (average percent cell survival relative to the control group after 72 h exposure period): DU145; for Growth (average percent cell survival relative to the control group after 72 h exposure period): lovastatin […], alone or all three together; for IC50: DU145 cells, estimated, read-out: IC50 (suppression of proliferation)
Description: as §2, §3

[6] = system: Human PC-3 prostate adenocarcinoma cells; assay: PC-3 cell proliferation, CellTiter 96, 72 h exposure; assay type: cell-based; details: for IC50: PC-3 cells, estimated, read-out: IC50 (suppression of proliferation); for Growth (average percent cell survival relative to the control group): PC3; for Absorbance (net absorbance at 490 nm, net growth after 72 h): PC-3
Description: as §2, §3

[7] = genistein 5 μM, lovastatin 0.5 μM
[8] = genistein 10 μM, γ-tocotrienol 5 μM
[9] = perillyl alcohol 800 μM, negative = cell killing

O=c1c(-c2ccc(O)cc2)coc2cc(O)cc(O)c12 [Genistein, genistein]
G2 phase cells [1]: 10.8%
S phase cells [1]: 21.7%
G1 phase cells [1]: 67.6%
G2 phase cells [2]: 15.8%
G1 phase cells [2]: 64.9%
S phase cells [2]: 19.3%
Growth (average percent cell survival relative to the control group) ([3]; genistein 10 μM): 100%
Growth (average percent cell survival relative to the control group) ([3]; genistein 20 μM): 70% and 99%
Growth (average percent cell survival relative to the control group) ([4]; genistein 5 μM): 83%
Observed Growth (empirical percentage survival) ([4]; genistein 5.0 μM): 63%
Growth (average percent cell survival relative to the control group after 72 h exposure period) [4, 7]: 73%
Absorbance (net absorbance at 490 nm, net growth after 72 h) ([5]; genistein 10 μM): 0.53
Growth (average percent cell survival relative to the control group) ([5]; genistein 10 μM): 100% and 93%
Growth (average percent cell survival relative to the control group after 72 h exposure period) [5, 8]: 100%
Absorbance (net absorbance at 490 nm, net growth after 72 h) ([5]; genistein 20 μM): 0.34
Growth (average percent cell survival relative to the control group) ([5]; genistein 20 μM): 97%
Absorbance (net absorbance at 490 nm, net growth after 72 h) ([5]; genistein 40 μM): 0.20
Growth (average percent cell survival relative to the control group) ([5]; genistein 40 μM): 38 ± 10%
IC50 ([5]; Homo sapiens, DU-145): 30 µM
IC50 ([6]; Homo sapiens): 70 ± 17 µM
Growth (average percent cell survival relative to the control group) ([6]; genistein 10 μM): 121 ± 3%
Growth (average percent cell survival relative to the control group) ([6]; genistein 20 μM): 87% and 95 ± 4%
Growth (average percent cell survival relative to the control group) ([6]; genistein 40 μM): 78% and 74 ± 11% and 84 ± 2%
Absorbance (net absorbance at 490 nm, net growth after 72 h) ([6]; genistein 10 μM): 0.43
Absorbance (net absorbance at 490 nm, net growth after 72 h) ([6]; genistein 20 μM): 0.39
Absorbance (net absorbance at 490 nm, net growth after 72 h) ([6]; genistein 40 μM): 0.32

C=C(C)[C@@H]1CC=C(CO)CC1 [Perillyl Alcohol, perillyl alcohol]
Absorbance (net absorbance at 490 nm, net growth after 72 h) ([5]; perillyl alcohol 100 μM): 0.46
Absorbance (net absorbance at 490 nm, net growth after 72 h) ([5]; perillyl alcohol 200 μM): 0.40
Absorbance (net absorbance at 490 nm, net growth after 72 h) ([5]; perillyl alcohol 400 μM): 0.18
Absorbance (net absorbance at 490 nm, net growth after 72 h) [5, 9]: −0.06
Absorbance (net absorbance at 490 nm, net growth after 72 h) ([5]; perillyl alcohol 1600 μM, negative = cell killing): −0.05
IC50 ([5]; Homo sapiens, DU-145): 420 µM
IC50 ([6]; Homo sapiens): 480 µM
Absorbance (net absorbance at 490 nm, net growth after 72 h) ([6]; perillyl alcohol 200 μM): 0.34
Absorbance (net absorbance at 490 nm, net growth after 72 h) ([6]; perillyl alcohol 400 μM): 0.09
Absorbance (net absorbance at 490 nm, net growth after 72 h) ([6]; perillyl alcohol 600 μM): 0.06
Absorbance (net absorbance at 490 nm, net growth after 72 h) [6, 9]: −0.05

γ-tocotrienol
G2 phase cells [2]: 12.2%
G1 phase cells [2]: 66.7%
S phase cells [2]: 21.1%
Growth (average percent cell survival relative to the control group) ([3]; γ-tocotrienol 5 μM): 100%
Growth (average percent cell survival relative to the control group) ([3]; γ-tocotrienol 10 μM): 76%
Growth (average percent cell survival relative to the control group) ([3]; γ-tocotrienol 20 μM): 70%
Growth (average percent cell survival relative to the control group) ([4]; γ-tocotrienol 5 μM): 73%
Growth (average percent cell survival relative to the control group after 72 h exposure period) [5, 8]: 87%
Absorbance (net absorbance at 490 nm, net growth after 72 h) ([5]; γ-tocotrienol 5 μM): 0.39
Growth (average percent cell survival relative to the control group) ([5]; γ-tocotrienol 5 μM): 87%
Absorbance (net absorbance at 490 nm, net growth after 72 h) ([5]; γ-tocotrienol 10 μM): 0.40
Growth (average percent cell survival relative to the control group) ([5]; γ-tocotrienol 10 μM): 68%
Absorbance (net absorbance at 490 nm, net growth after 72 h) ([5]; γ-tocotrienol 20 μM): 0.33
Growth (average percent cell survival relative to the control group) ([5]; γ-tocotrienol 20 μM): 70%
Absorbance (net absorbance at 490 nm, net growth after 72 h) ([5]; γ-tocotrienol 30 μM): 0.20
Absorbance (net absorbance at 490 nm, net growth after 72 h) ([5]; γ-tocotrienol 40 μM, negative = cell killing): −0.05
IC50 [5]: 20 ± 2 µM
Growth (average percent cell survival relative to the control group) ([6]; γ-tocotrienol 20 μM): 100%
Absorbance (net absorbance at 490 nm, net growth after 72 h) ([6]; γ-tocotrienol 40 μM): 0.36
Absorbance (net absorbance at 490 nm, net growth after 72 h) ([6]; γ-tocotrienol 80 μM): 0.02
IC50 [6]: 39 µM

CC(=O)O[C@H]1C(=O)[C@@]2(C)[C@H]([C@H](OC(=O)c3ccccc3)[C@]3(O)C[C@H](OC(=O)[C@H](O)[C@@H](NC(=O)c4ccccc4)c4ccccc4)C(C)=C1C3(C)C)[C@]1(OC(C)=O)CO[C@@H]1C[C@@H]2O [Taxol, taxol, reference compound]
Growth (average percent cell survival relative to the control group) ([6]; taxol 2 nM): 97 ± 5%
Growth (average percent cell survival relative to the control group) ([6]; taxol 5 nM): 71 ± 1%

C/C=C(\C)C(=O)OCC=C(C)CCC=C(C)CCC=C(C)C [Farnesyl Tiglate, farnesyl tiglate]
Growth (average percent cell survival relative to the control group) ([4]; farnesyl tiglate 25 μM): 70%
Growth (average percent cell survival relative to the control group) ([4]; farnesyl tiglate 50 μM): 49%

CC(C)=CCCC(C)=CCCC(C)=CCO [Farnesol, farnesol]
Observed Growth (empirical percentage survival) ([4]; farnesol 12.5 μM): 84%
Observed Growth (empirical percentage survival) ([4]; farnesol 25 μM): 54%
Growth (average percent cell survival relative to the control group) ([5]; farnesol 50 μM): 38%
Growth (average percent cell survival relative to the control group) ([5]; farnesol 100 μM): 79 ± 11%
Growth (average percent cell survival relative to the control group) ([6]; farnesol 50 μM): 53 ± 5%
Growth (average percent cell survival relative to the control group) ([6]; farnesol 100 μM): 93 ± 7%

CC(C)=CCC/C(C)=C/COC(=O)c1ccccc1N [Geranyl Anthranilate, geranyl anthranilate]
G2 phase cells [1]: 9.8%
S phase cells [1]: 22.9%
G1 phase cells [1]: 67.3%
Growth (average percent cell survival relative to the control group after 72 h exposure period) [4, 7]: 81%

CC[C@H](C)C(=O)O[C@H]1C[C@@H](C)C=C2C=C[C@H](C)[C@H](CC[C@@H]3C[C@@H](O)CC(=O)O3)[C@H]21 [Lovastatin, [1S-[1α(R*),3α,7β,8β(2S*,4S*), 8a.β.]]-2-methylbutanoic acid 1,2,3,7,8,8a-hexahydro-3,7-dimethyl-8-[2-(tetrahydro-4-hydroxy-6-oxo-2H-pyran-2-yl)ethyl]-1-naphthalenyl ester, reference compound]
G2 phase cells [1]: 9.3%
S phase cells [1]: 22.2%
G1 phase cells [1]: 68.5%
G2 phase cells [2]: 15.7%
G1 phase cells [2]: 62.0%
S phase cells [2]: 22.3%
Growth (average percent cell survival relative to the control group) ([3]; lovastatin 3 μM): 100%
Growth (average percent cell survival relative to the control group) ([3]; lovastatin 3.0 μM): 100%
Growth (average percent cell survival relative to the control group after 72 h exposure period) [4, 7]: 71%
Growth (average percent cell survival relative to the control group) ([4]; lovastatin 0.5 μM): 100%
Growth (average percent cell survival relative to the control group) ([4]; lovastatin 1.0 μM): 83%
Growth (average percent cell survival relative to the control group) ([4]; lovastatin 3.0 μM): 42%
Growth (average percent cell survival relative to the control group after 72 h exposure period) [5, 8]: 100%
Growth (average percent cell survival relative to the control group) ([5]; lovastatin 3 μM): 100%
Growth (average percent cell survival relative to the control group) ([5]; lovastatin 3.0 μM): 100%
Absorbance (net absorbance at 490 nm, net growth after 72 h) ([5]; lovastatin 4 μM): 0.37
Absorbance (net absorbance at 490 nm, net growth after 72 h) ([5]; lovastatin 8 μM): 0.30
Absorbance (net absorbance at 490 nm, net growth after 72 h) ([5]; lovastatin 16 μM): 0.18
Absorbance (net absorbance at 490 nm, net growth after 72 h) ([5]; lovastatin 32 μM): 0.15
IC50 ([5]; Homo sapiens, DU-145): 18 ± 2 µM
IC50 ([6]; Homo sapiens): 2.2 ± 0.5 µM
Growth (average percent cell survival relative to the control group) ([6]; lovastatin 0.75 μM): 87 ± 3%
Absorbance (net absorbance at 490 nm, net growth after 72 h) ([6]; lovastatin 1 μM): 0.32
Absorbance (net absorbance at 490 nm, net growth after 72 h) ([6]; lovastatin 2 μM): 0.10
Absorbance (net absorbance at 490 nm, net growth after 72 h) ([6]; lovastatin 4 μM, negative = cell killing): −0.02

Source: patent US7074825B2, “Composition and method for treating cancer” (priority 2002, dated 2006)
